The source of these data is ChEMBL document CHEMBL3603804, “Cyclin dependent kinase (CDK) inhibitors as anticancer drugs” (Bioorg Med Chem Lett, 2015).

The target of series [1] is T1, Cyclin-dependent kinase 2/cyclin E1 (Homo sapiens, UniProt P24941). Description: Inhibition of recombinant CDK2/GST-fused cyclin E (unknown origin) expressed in baculovirus infected insect Sf9 cells by substrate phosphorylation assay in presence of [33P]-gamma adenosine triphosphate.
Series [2] deals with Vascular endothelial growth factor receptor 2 (Homo sapiens, UniProt P35968). Description: Inhibition of VEGFR2 (unknown origin).
Vascular endothelial growth factor receptor 2, sequence (P35968 whole entry, the tested form may be a part): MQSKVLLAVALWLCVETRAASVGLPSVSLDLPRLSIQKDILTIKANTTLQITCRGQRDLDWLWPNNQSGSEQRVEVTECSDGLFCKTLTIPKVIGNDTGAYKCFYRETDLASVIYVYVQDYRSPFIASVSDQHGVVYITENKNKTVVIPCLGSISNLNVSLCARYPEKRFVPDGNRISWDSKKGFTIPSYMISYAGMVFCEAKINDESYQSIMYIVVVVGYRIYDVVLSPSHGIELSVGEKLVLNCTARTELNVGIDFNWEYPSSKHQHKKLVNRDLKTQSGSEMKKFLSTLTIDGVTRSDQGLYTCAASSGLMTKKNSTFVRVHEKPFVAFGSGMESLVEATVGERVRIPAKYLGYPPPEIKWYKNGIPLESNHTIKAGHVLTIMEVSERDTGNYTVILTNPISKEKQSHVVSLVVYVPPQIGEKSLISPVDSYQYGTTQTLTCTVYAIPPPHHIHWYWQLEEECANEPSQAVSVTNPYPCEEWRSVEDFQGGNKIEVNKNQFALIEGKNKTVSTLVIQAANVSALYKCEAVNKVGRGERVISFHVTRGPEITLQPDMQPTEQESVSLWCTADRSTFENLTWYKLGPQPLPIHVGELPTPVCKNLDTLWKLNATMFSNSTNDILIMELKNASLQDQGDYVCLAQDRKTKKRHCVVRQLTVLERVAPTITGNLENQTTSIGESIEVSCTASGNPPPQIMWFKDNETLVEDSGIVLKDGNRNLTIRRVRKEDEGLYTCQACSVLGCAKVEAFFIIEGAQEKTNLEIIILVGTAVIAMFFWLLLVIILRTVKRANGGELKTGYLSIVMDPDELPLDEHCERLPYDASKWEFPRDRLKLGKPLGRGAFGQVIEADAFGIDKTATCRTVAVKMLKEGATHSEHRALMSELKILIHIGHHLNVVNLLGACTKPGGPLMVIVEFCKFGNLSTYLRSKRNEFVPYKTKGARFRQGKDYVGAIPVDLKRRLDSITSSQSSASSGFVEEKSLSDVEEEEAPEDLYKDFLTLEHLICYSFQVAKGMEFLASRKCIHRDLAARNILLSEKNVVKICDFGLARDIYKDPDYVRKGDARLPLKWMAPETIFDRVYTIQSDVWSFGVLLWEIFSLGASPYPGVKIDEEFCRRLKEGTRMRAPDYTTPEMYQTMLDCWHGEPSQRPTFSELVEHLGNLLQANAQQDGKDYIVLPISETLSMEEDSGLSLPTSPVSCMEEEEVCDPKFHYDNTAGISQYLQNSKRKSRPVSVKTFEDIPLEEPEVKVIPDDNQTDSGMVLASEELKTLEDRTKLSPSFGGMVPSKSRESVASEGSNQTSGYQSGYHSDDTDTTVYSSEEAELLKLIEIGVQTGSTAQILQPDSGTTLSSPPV
In series [3] the target is T2, Cyclin-dependent kinase 1/cyclin B1 (Homo sapiens, UniProt P06493). Description: Inhibition of recombinant CDK1/GST-fused cyclin B (unknown origin) expressed in baculovirus infected insect Sf9 cells by substrate phosphorylation assay in presence of [33P]-gamma adenosine triphosphate.
T2 sequence (P06493 whole entry, the tested form may be a part): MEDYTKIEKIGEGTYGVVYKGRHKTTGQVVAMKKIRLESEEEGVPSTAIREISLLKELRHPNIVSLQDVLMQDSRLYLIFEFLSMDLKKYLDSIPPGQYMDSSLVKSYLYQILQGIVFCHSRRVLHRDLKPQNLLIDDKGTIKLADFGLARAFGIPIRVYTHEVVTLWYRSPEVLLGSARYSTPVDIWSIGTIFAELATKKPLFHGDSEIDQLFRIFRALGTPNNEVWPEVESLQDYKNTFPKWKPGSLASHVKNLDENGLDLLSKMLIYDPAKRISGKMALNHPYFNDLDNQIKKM
T2 sequence (P14635 whole entry, further chain, the tested form may be a part): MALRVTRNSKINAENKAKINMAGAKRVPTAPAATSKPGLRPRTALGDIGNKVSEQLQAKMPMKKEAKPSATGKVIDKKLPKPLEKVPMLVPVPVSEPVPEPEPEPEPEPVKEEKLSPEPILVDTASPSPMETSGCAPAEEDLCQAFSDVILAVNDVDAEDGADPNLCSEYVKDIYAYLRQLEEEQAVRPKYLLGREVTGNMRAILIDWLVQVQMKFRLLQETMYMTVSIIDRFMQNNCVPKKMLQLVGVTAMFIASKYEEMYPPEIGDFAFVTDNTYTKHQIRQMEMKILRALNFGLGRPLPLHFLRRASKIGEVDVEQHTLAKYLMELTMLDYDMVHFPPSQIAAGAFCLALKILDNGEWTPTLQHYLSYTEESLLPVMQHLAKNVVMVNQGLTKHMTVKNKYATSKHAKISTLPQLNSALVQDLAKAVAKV
Series [4] has as its system MCF7. Description: Cytotoxicity against human MCF7 cells assessed as growth inhibition after 96 hrs. The format is functional, cell-based. The settings on record: MCF7, 96 h.
For series [5], the target named is Carbonic anhydrase 2 (Homo sapiens, UniProt P00918). Kind of series: Inhibition of carbonic anhydrase-2 (unknown origin).
Series [6] has as its system Jurkat. Kind of series: Cytotoxicity against human Jurkat cells assessed as cell viability after 72 hrs by resazurin assay. The format is functional, cell-based. (The colour change of resazurin is a common sign of viable cells or microbes.)
For series [7], the system named is HCT-116. Description: Cytotoxicity against human HCT116 cells assessed as growth inhibition after 3 days by MTT assay. The series is classed as functional, cell-based. The settings on record: HCT-116, 72 h. Background: Formazan colour is commonly taken as a measure of viable cells.
Series [8] in a line: Chemical stability of the compound in phosphate buffer assessed as remaining compound at pH 1.2 at 37 degC after 3 hrs. The note with it: read-out: Stability. The series is classed as physicochemical.
The target of series [9] is T1, Cyclin-dependent kinase 2/cyclin E1. Kind of series: Inhibition of CDK2/cyclin E (unknown origin) expressed in baculovirus infected insect Sf9 cells assessed as inhibition of GST-tagged Rb phosphorylation after 30 mins in presence of [33P]-ATP.
Series [10] has as its target T3, Cyclin-dependent kinase 4/cyclin D1 (Homo sapiens, UniProt P11802). Description: Inhibition of CDK4/cyclin D1 (unknown origin) expressed in baculovirus infected insect Sf9 cells assessed as inhibition of GST-tagged Rb phosphorylation after 30 mins in presence of [33P]-ATP.
Series [11] has as its target T3, Cyclin-dependent kinase 4/cyclin D1. Kind of series: Inhibition of human CDK4/cyclin D1 expressed in insect cells assessed as phosphorylation of CTRF after 50 mins by microplate scintillation counter.
Series [12] has as its target T2, Cyclin-dependent kinase 1/cyclin B1. The series is classed as protein-complex assay.
Description: Inhibition of human CDK1/cyclin B1 (unknown origin)
Series [13] concerns MDA-MB-231. Kind of series: Cytotoxicity against human MDA-MB-231 cells. The series is classed as functional, cell-based.
Series [14] has as its target T4, Cyclin-dependent kinase 2/cyclin A (Homo sapiens, UniProt P24941). Description: Non-competitive inhibition of human CDK2/cyclinA using PKTPKKAKKL as substrate in presence of ATP. The series is classed as protein-complex assay.
Series [15] concerns the target T5, Cyclin-dependent kinase 4/6 (Homo sapiens, UniProt P11802+Q00534). Kind of series: Inhibition of CDK4/6 in human COLO205 cells assessed as inhibition of Rb phosphorylation after 24 hrs by propidium iodide staining-based laser-scanning fluorescence microplate cytometric analysis. The series is classed as cell-based. The note with it: colo 205.
In series [16] the target is T5, Cyclin-dependent kinase 4/6. Description: Inhibition of CDK4/6 in human COLO205 cells assessed as maximum cell cycle arrest at G1 phase after 24 hrs by propidium iodide staining-based flow cytometric analysis. The settings on record: COLO 205.
Series [17] concerns the target T4, Cyclin-dependent kinase 2/cyclin A. Kind of series: Competitive inhibition of human CDK2/cyclinA using PKTPKKAKKL as substrate in presence of ATP. The format is protein-complex assay.
For series [18], the system named is MDA-MB-468. Description: Antiproliferative activity against Rb-negative human MDA-MB-468 cells assessed as inhibition of [14C]-thymidine incorporation into DNA preincubated for 24 hrs followed by [14C]-thymidine addition measured after 72 hrs by beta plate counting analysis. The series is classed as cell-based.

Bounds are passed on as bounds.

T3 sequence (P11802 whole entry): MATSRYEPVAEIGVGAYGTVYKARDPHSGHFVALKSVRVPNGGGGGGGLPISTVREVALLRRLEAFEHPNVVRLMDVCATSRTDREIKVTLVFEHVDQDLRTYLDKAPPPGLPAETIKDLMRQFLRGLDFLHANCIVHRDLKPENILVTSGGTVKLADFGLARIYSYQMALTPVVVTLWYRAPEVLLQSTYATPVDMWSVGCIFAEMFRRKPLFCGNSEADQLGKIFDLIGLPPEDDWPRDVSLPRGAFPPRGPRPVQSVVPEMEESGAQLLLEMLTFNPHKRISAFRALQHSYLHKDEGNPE
T3 sequence (P24385 whole entry, further chain): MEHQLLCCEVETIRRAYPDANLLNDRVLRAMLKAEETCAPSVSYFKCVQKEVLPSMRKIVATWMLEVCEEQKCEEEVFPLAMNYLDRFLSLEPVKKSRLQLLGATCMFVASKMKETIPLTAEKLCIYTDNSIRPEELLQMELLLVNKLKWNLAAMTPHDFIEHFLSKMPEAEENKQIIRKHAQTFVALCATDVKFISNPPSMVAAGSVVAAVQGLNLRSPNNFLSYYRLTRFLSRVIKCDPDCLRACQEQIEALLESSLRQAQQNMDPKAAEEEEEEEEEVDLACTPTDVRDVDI
T5 sequence (P11802 whole entry, looked up): as the sequence (P11802 whole entry) above
T5 sequence (Q00534 whole entry, looked up): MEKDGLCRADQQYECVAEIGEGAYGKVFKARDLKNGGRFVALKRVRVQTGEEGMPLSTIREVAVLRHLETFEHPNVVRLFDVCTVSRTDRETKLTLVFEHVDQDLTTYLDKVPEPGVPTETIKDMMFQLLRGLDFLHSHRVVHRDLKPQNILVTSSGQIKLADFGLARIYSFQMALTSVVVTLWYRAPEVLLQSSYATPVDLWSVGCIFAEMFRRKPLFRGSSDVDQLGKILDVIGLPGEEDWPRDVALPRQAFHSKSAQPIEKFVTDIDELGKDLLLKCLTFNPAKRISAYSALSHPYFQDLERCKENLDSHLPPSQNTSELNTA

What is called IC50 is the concentration that gives 50% inhibition. Turning to `C[C@@H](O)[C@@H](C)Oc1nc(Nc2ccc([S+](N)[O-])cc2)ncc1Br` (stereo partly drawn), the IC50 is 9 nM in series [1], 122 nM in series [2], 4 nM in series [3] and 48 nM in [4].

Consider `C[C@@H](O)[C@@H](C)Nc1nc(Nc2ccc([S+](N)[O-])cc2)ncc1Br` (stereo partly drawn), for which the IC50 in series [1] was found to be 10 nM; in series [2], 59 nM; in [3], 10 nM; in [4] it was 30 nM; in series [5] it was 403 nM.

Take `CN(C)C/C=C/C(=O)Nc1ccc(C(=O)Nc2cccc(Nc3ncc(Cl)c(-c4c[nH]c5ccccc45)n3)c2)cc1`: in series [6], the IC50 came out at 50 nM.

As for `C[C@@H](O)[C@@H](C)Oc1nc(Nc2ccc(S(=N)(=O)C3CC3)cc2)ncc1C(F)(F)F` (stereo partly drawn) [RONICICLIB], the IC50 in [4] is 15 nM.

As for `CC(N)c1csc(/C=N/Nc2ncnc3sc(C(C)C(C)C)cc23)n1` (stereo not drawn), the IC50 amounted to 315 nM in series [7], 880 nM in [9] and 22 nM in [10]. Besides, the remaining at 3 h in series [8] was 83%.

`COc1ccc(Nc2nccc(-c3ccc4nc(C)n(C(C)C)c4c3)n2)cc1`: the IC50 in series [11] and in [12] was 4 nM in each case.

Molecule `C[C@@H](O)[C@@H](C)Oc1nc(Nc2ccc([S@](=N)(=O)C3CC3)cc2)ncc1C(F)(F)F` [RONICICLIB] had an IC50 in series [5] of more than 10000 nM.

Regarding `CC1=C(C(=O)OC2CCCCC2)C(c2ccc([N+](=O)[O-])cc2)C2=C(CC(C)(C)CC2=O)N1` (stereo not drawn), the IC50 in [13] worked out at 4000 nM; in [14], 71000 nM.

`CC(N)c1csc(/C=N/Nc2ncnc3sc(C(C)(C)C)cc23)n1` (stereo not drawn): the results for the IC50 in [7], in [9] and in [10] were 177 nM, 830 nM and 19 nM, respectively. Further, in series [8], the remaining at 3 h is 81%.

With `CC[S@@](=N)(=O)c1ccc(Nc2ncc(Br)c(N[C@H](C)[C@@H](C)O)n2)cc1`, the IC50 in series [1] was 2 nM; in series [2], 32 nM; in [3], 3 nM; in series [4], 44 nM; in series [5], more than 10000 nM.

On to `CC(Nc1cc(N2CCOCC2)ccc1[N+](=O)[O-])C12CC3CC(CC(C3)C1)C2` (stereo not drawn), for which the IC50 in series [13] was more than 50000 nM; in series [14], 27000 nM.

As for `Cc1nc2ccc(-c3ccnc(Nc4ccc(N5CCNCC5)cn4)n3)cc2n1C(C)C`, the IC50 in series [11] turned out to be 2 nM; in series [15], 42 nM; in [12] it was 222 nM. The INH in [16] stood at 0.2 µM.

On to `N[S+]([O-])c1ccc(/N=N/c2ccc(O)[nH]c2=O)cc1` (stereo not drawn), for which the IC50 in series [17] is 45000 nM.

As for `C#CCNc1nc(Nc2ccccc2)ncc1Br`, the figures for the IC50 in series [1], in series [3] and in series [4] were 100 nM, 100 nM and 4000 nM, respectively.

With `CC(C)(C)c1cc2c(N/N=C/c3nccs3)ncnc2s1`, the results for the IC50 in [7], in series [9] and in series [10] were 419 nM, 200 nM and 41 nM, respectively. Besides, the remaining at 3 h in series [8] was 79%.

As to `Cc1nc2ccc(-c3ccnc(Nc4ccc(CN5CCN(C(C)C)CC5)cn4)n3)cc2n1C(C)C`, the IC50 in series [11] worked out at 2 nM; in [15], 89 nM; in [12] it was 1010 nM. For the same molecule, the INH in series [16] is 2.2 µM.

As for `CC(=O)c1c(C)c2cnc(Nc3ccc(N4CCNCC4)cn3)nc2n(C2CCCC2)c1=O` [PALBOCICLIB], in series [18], the IC50 was more than 3000 nM.

`C[C@H](CO)Nc1nc(Nc2ccc(S(N)(=O)=O)cc2)ncc1Br`: the IC50 in [1] was 4 nM; in [2] it was 34 nM; in series [3] it was 500 nM; in [4] it was 266 nM; in series [5], 514 nM.
